Results taken from patent US9937186B2, “Sulfonamides derived from tricyclyl-2-aminocycloalkanols as anticancer agents” (ICAHN SCHOOL OF MEDICINE AT MOUNT SINAI, priority 2014, dated 2018).

Columns and labels:
A549luc cells = experiment: Colony formation (clonogenic) assay, A549luc cells; format: cell-based; settings: Homo sapiens, 168 h; A549 luc, harvested 7 days after initial treatment
Method: (§1) Protocol for clonogenic assay follows Sangodkar et al., J Clin Invest 2012; 122:2637-51.
(§2) Cell culture and staining: For both A549luc and H1650 cells, 500 cells are seeded into each well of a 6-well plate and allowed to attach for 24 hours before drug treatment. The following day, cells are treated with either the appropriate dose of drug or an equivalent volume of DMSO (two replicates were treated for each condition). For each condition, depleted media was replaced with fresh media containing the equivalent drug dose four days after initial treatment. Cells are harvested either 7 (A549 luc) or 8 (H1650) days after initial treatment. Briefly, medium is aspirated from each well and the cells are washed twice with ice-cold PBS, then plates are allowed to dry at room temperature for 4 hours. Cells are fixed for one hour in a fixing solution consisting of 10% methanol and 10% glacial acetic acid in distilled water, then stained overnight in 1% (w/v) crystal violet dissolved in methanol. The next day, staining solution is aspirated from the wells and plates are washed gently with distilled water to remove excess stain before colony counting. Colonies are imaged on a ChemiDoc XRS+ (Bio-Rad) and images are exported as 8-bit TIFF files. Colonies are counted using the Colony Counter plugin in ImageJ, with colony size defined as between 4 and 400 square pixels, and minimum circularity set at 0.6. Duplicate wells are averaged to obtain a single value for each condition. Results (number of colonies) for A549 luc cells and results (number of colonies) for H1650 cells may be analyzed separately.

[1] = In vivo cancer model: body weights and signs of toxicity; parameters: species or system mice; settings: for % T/C (Mean body weight) / % T/C (Median body weight) / Mean body weight / Median body weight: oral gavage; for signs of toxicity (mucous diarrhea, abdominal stiffness and weight loss): oral gavage 15 or 50 mg/kg, 30 days, BALB/c nu/nu mice
Method: (§3) To assess the in vivo effects of the compounds, subcutaneous xenograft of lung cancer cell line H441 was generated. Cells (5×10^6) were injected into the right flank of 6- to 8-week-old male BALB/c nu/nu mice (Charles River, Wilmington, Mass.). Tumor volume was assessed twice a week by caliper measurement. Mice were randomized to treatment groups based on initial tumor volume average of 100 mm^3 per group. Mice were dosed by oral gavage with 15 mg/kg Example 1a QD, 15 mg/kg Example 1a BID, 50 mg/kg Example 1a QD, or 50 mg/kg Example 3a QD. Mouse tumors were measured twice a week for the duration of the study. Mouse body weights were recorded weekly and percentage of mice body weights during treatment was calculated as: weight at each time point/initial weight×100. […] Mice underwent treatment for 30 days and were sacrificed 2 hours after the last dose. Tumors were then excised and cut for both formalin-fixation and snap frozen in liquid nitrogen. […] No statistically significant toxicity was observed as judged from animal body weights of compound treated groups versus vehicle control group as shown in Table B below.

H1650 lung cancer cells = experiment: Cell viability assay (MTT), H1650 lung cancer cells; format: cell-based; settings: Homo sapiens, NCI-H1650; H1650 cells
Method: Cell Viability Assays (IC50 Determination)
Cell viability assays were performed according to Denizot, F. and R. Lang, Journal of Immunological Methods, 1986. 89(22): p. 271-277. H1650 lung cancer cells were plated at 150,000 cells per well in a 12 well plate. Twenty-four hours after plating, cells were treated as described with increasing concentrations of drug and control. Forty-eight hours after drug treatment, cells were treated with 100 μL of 3-(4,5-Dimethylthiazol-2-yl)-2,5-diphenyltetrazolium bromide (MTT) and incubated for 2 hours at 37 C. The MTT solution was subsequently replaced with 300 μL of n-propyl alcohol and re-aliquoted to a 96 well plate. Spectrophotometric analysis of each solution was performed using a 96 well plate reader at 600 nm in triplicate.

[2] = test system: lung cancer cell line H441; experiment: In vivo cancer model: subcutaneous xenograft of lung cancer cell line H441, tumor volume; parameters: species or system mice; key to Mean Tumor Volume(T) / Median Tumor Volume(T): tumor volume in mm³; settings: oral gavage, 30 days; for Mean Tumor Volume(T) / Median Tumor Volume(T): in mm³ (unit assumed)
Method: as §3

H1650 cells = experiment: Colony formation (clonogenic) assay, H1650 cells; format: cell-based; settings: Homo sapiens, NCI-H1650, 192 h; H1650, harvested 8 days after initial treatment
Method: as §1, §2

[3] = 50 mg/kg QD, H441 xenograft mice

Q: Which GI50 (A549luc cells) does the source give for O=S(=O)(N[C@@H]1CCC[C@H](N2c3ccccc3Oc3ccccc32)[C@H]1O)c1ccc(OC(F)(F)F)cc1 (single isomer, unassigned) [Example 1a] here?
A: 7.5 µM

Q: And the “% T/C (Mean body weight)” value ([1]; 15 mg/kg BID)?
A: 95.27%

Q: And the “% T/C (Median body weight)” value ([1]; 15 mg/kg BID)?
A: 99.58%

Q: And the Mean body weight ([1]; 15 mg/kg BID)?
A: 33.20 g

Q: What about the Median body weight ([1]; 15 mg/kg BID) of the same compound?
A: 35.45 g

Q: What about the “% T/C (Mean body weight)” value ([1]; 15 mg/kg QD) of the same compound?
A: 95.27%

Q: And the “% T/C (Median body weight)” value ([1]; 15 mg/kg QD)?
A: 93.68%

Q: And the Mean body weight ([1]; 15 mg/kg QD)?
A: 33.20 g

Q: What about the Median body weight ([1]; 15 mg/kg QD) of the same compound?
A: 33.35 g

Q: And the “% T/C (Mean body weight)” value ([1]; 50 mg/kg QD)?
A: 100.59%

Q: And the “% T/C (Median body weight)” value ([1]; 50 mg/kg QD)?
A: 99.72%

Q: What about the Median body weight ([1]; 50 mg/kg QD) of the same compound?
A: 35.50 g

Q: What about the Mean body weight [1, 3] of the same compound?
A: 35.06 g

Q: What about the “signs of toxicity (mucous diarrhea, abdominal stiffness and weight loss)” value [1] of the same compound?
A: no adverse signs were observed

Q: What about the GI50 (H1650 lung cancer cells) of the same compound?
A: 5 µM

Q: And the “% T/C (Mean Tumor Volume)” value ([2]; 15 mg/kg BID)?
A: 26.08%

Q: What about the “% T/C (Median Tumor Volume)” value ([2]; 15 mg/kg BID) of the same compound?
A: 27.37%

Q: And the “Mean Tumor Volume(T)” value ([2]; 15 mg/kg BID)?
A: 315.40

Q: What about the “Median Tumor Volume(T)” value ([2]; 15 mg/kg BID) of the same compound?
A: 274.43

Q: What about the “% T/C (Mean Tumor Volume)” value ([2]; 15 mg/kg QD) of the same compound?
A: 61.43%

Q: What about the “% T/C (Median Tumor Volume)” value ([2]; 15 mg/kg QD) of the same compound?
A: 60.69%

Q: And the “Mean Tumor Volume(T)” value ([2]; 15 mg/kg QD)?
A: 742.80

Q: And the “Median Tumor Volume(T)” value ([2]; 15 mg/kg QD)?
A: 608.58

Q: What about the “% T/C (Mean Tumor Volume)” value ([2]; 50 mg/kg QD) of the same compound?
A: 36.50%

Q: And the “% T/C (Median Tumor Volume)” value ([2]; 50 mg/kg QD)?
A: 33.78%

Q: What about the “Mean Tumor Volume(T)” value ([2]; 50 mg/kg QD, BALB/c nu/nu mice) of the same compound?
A: 441.37

Q: And the “Median Tumor Volume(T)” value ([2]; 50 mg/kg QD)?
A: 338.69

Q: What about the GI50 (H1650 cells) of the same compound?
A: 5 µM

Q: For O=S(=O)(N[C@@H]1CCC[C@H](n2c3ccccc3c3ccccc32)[C@H]1O)c1ccc(OC(F)(F)F)cc1 (single isomer, unassigned) [Example 3a], which GI50 (A549luc cells) is on record?
A: 7.5 µM

Q: What about the “% T/C (Mean body weight)” value ([1]; 50 mg/kg QD) of the same compound?
A: 93.96%

Q: What about the “% T/C (Median body weight)” value ([1]; 50 mg/kg QD) of the same compound?
A: 92.70%

Q: What about the Median body weight ([1]; 50 mg/kg QD) of the same compound?
A: 33.00 g

Q: And the Mean body weight [1, 3]?
A: 32.74 g

Q: What about the “signs of toxicity (mucous diarrhea, abdominal stiffness and weight loss)” value [1] of the same compound?
A: no adverse signs were observed

Q: What about the GI50 (H1650 lung cancer cells) of the same compound?
A: 10 µM

Q: And the “% T/C (Mean Tumor Volume)” value ([2]; 50 mg/kg QD)?
A: 32.13%

Q: What about the “% T/C (Median Tumor Volume)” value ([2]; 50 mg/kg QD) of the same compound?
A: 37.62%

Q: And the “Mean Tumor Volume(T)” value ([2]; 50 mg/kg QD, BALB/c nu/nu mice)?
A: 388.47

Q: What about the “Median Tumor Volume(T)” value ([2]; 50 mg/kg QD) of the same compound?
A: 377.21

Q: And the GI50 (H1650 cells)?
A: 5 µM
